Source: patent publication US11168089B2, “Fused pyrimidine derivatives as A2A / A2B inhibitors” (Incyte Corporation, priority 2018, dated 2021)

Key:
Adenosine A2A receptor = Adenosine A2A receptor (Homo sapiens (Human), UniProt P29274); assay: A2A Tag-Lite HTRF assay; type: binding; settings: Tag-Lite Adenosine A2A labeled cells, displacement of A2A Receptor Red antagonist fluorescent ligand 12.5 nM; read-out: A2A_Ki
Excerpt: Example C. A2A Tag-Lite® HTRF Assay
The final concentration of DMSO was 1%.

[1] = target: human adenosine A2B receptor (Homo sapiens (Human), UniProt P29275); assay: Adenosine A2B Receptor Cyclic AMP GS Assay; type: cell-based; settings: HEK-293 cells expressing human A2B receptor, agonist NECA 12 nM, cAMP accumulation; read-out: A2B_cAMP_EC50
human adenosine A2B receptor, sequence (P29275 whole entry): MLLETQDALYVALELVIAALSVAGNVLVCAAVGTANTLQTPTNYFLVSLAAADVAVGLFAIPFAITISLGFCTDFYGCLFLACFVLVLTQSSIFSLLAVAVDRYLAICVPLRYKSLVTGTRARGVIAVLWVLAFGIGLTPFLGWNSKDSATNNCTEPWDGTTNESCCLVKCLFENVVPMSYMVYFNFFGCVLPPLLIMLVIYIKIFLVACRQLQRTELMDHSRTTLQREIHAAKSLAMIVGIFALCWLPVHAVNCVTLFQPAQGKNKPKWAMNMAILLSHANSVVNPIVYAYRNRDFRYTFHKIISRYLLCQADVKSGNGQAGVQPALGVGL
Procedure: Example B. Adenosine A2B Receptor Cyclic AMP GS Assay
Stably transfected HEK-293 cells expressing the human adenosine A2B receptor (Perkin Elmer) were maintained in MEM culture medium with 10% FBS and 100 μg/mL Geneticin (Life Technologies). 18 to 24 hours prior to assay, geneticin was removed from culture. The cisbio cAMP-GS Dynamic kit utilizing the FRET (Fluorescence Resonance Energy Transfer) technology was used to measure cAMP accumulation in the cells. Compounds of the present disclosure at an appropriate concentration were mixed with 10000 cells/well in white 96 well half area plates (Perkin Elmer) for 30 min at room temperature gently shaking. Agonist, NECA (R&D Technologies) at 12 nM was added to each well for 60 min at room temperature gently shaking. Detection reagents, d2-labeled cAMP (acceptor) and anti-cAMP cryptate (donor) were added to each well for 60 min at RT gently shaking. Plates were read on Pherastar (BMG Labtech), fluorescence ratio 665/620 was calculated and EC50 determination was performed by fitting the curve of percent of control versus the log of the compound concentration using GraphPad Prism.

Adenosine A2A receptor, sequence (P29274 whole entry): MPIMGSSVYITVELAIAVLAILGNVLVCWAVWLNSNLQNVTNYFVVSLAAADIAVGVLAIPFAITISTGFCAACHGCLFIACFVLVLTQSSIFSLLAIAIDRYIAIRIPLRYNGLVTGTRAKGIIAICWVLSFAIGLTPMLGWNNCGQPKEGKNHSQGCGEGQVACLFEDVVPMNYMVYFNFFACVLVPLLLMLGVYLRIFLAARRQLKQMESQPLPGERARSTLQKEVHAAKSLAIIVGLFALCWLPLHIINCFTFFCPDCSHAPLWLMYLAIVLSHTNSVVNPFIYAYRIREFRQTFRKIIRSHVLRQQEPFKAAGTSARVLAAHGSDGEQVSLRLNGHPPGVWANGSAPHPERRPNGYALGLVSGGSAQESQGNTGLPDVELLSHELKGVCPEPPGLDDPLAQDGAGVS

SMILES | Ki (Adenosine A2A receptor) [nM] | EC50 [1] [nM]
N#Cc1cccc(-c2cc3nc(C(O)c4ccccc4)nn3c(N)n2)c1 (stereo not shown) [Example 1, 3-(5-Amino-2-(hydroxy(phenyl)methyl)-[1,2,4]triazolo[1,5-c]pyrimidin-7-yl)benzonitrile] | < 10 | < 10
N#Cc1cccc(-c2cc3nc(Cc4ccccc4)nn3c(N)n2)c1 [Example 2, 3-(5-Amino-2-benzyl-[1,2,4]triazolo[1,5-c]pyrimidin-7-yl)benzonitrile] | < 10 | < 10
N#Cc1cccc(-c2cc3nc(Cc4ccccn4)nn3c(N)n2)c1 [Example 3, 3-(5-Amino-2-(pyridin-2-ylmethyl)-[1,2,4]triazolo[1,5-c]pyrimidin-7-yl)benzonitrile] | < 10 | < 10
N#Cc1cccc(-c2cc3nc(CC4CCCCC4)nn3c(N)n2)c1 [Example 4, 3-(5-Amino-2-(cyclohexylmethyl)-[1,2,4]triazolo[1,5-c]pyrimidin-7-yl)benzonitrile] | < 10 | 100 to 1000
Cn1ccnc1Cc1nc2cc(-c3cccc(C#N)c3)nc(N)n2n1 [Example 7, 3-(5-Amino-2-((1-methyl-1H-imidazol-2-yl)methyl)-[1,2,4]triazolo[1,5-c]pyrimidin-7-yl)benzonitrile] | < 10 | 10 to 100
N#Cc1cccc(-c2cc3nc(C(N)c4ccccc4)nn3c(N)n2)c1 (stereo not shown) [Example 8, 3-(5-Amino-2-(amino(phenyl)methyl)-[1,2,4]triazolo[1,5-c]pyrimidin-7-yl)benzonitrile] | < 10 | 100 to 1000
N#Cc1cccc(-c2nc(N)n3nc(Cc4ccccc4)nc3c2CO)c1 [Example 9, 3-(5-Amino-2-benzyl-8-(hydroxymethyl)-[1,2,4]triazolo[1,5-c]pyrimidin-7-yl)benzonitrile] | < 10 | 10 to 100
N#Cc1cccc(-c2cc3nc(Nc4ccccc4)nn3c(N)n2)c1 [Example 10, 3-(5-Amino-2-(phenylamino)-[1,2,4]triazolo[1,5-c]pyrimidin-7-yl)benzonitrile] | < 10 | 100 to 1000
N#Cc1cccc(-c2cc3nc(Cc4ccccc4)cn3c(N)n2)c1 [Example 11, 3-(5-Amino-2-benzylimidazo[1,2-c]pyrimidin-7-yl)benzonitrile] | < 10 | 10 to 100
CCNC(=O)c1nc2cc(-c3cccc(C#N)c3)nc(N)n2n1 [Example 12, 5-Amino-7-(3-cyanophenyl)-N-ethyl-[1,2,4]triazolo[1,5-c]pyrimidine-2-carboxamide] | < 10 | > 1000
CCN(Cc1cccc(F)c1C(O)c1nc2cc(-c3cccc(C#N)c3F)nc(N)n2n1)[C@H]1CCNC1=O (stereo partly drawn) [Example 18, 3-(5-Amino-2-((2-((ethyl((S)-2-oxopyrrolidin-3-yl)amino)methyl)-6-fluorophenyl)(hydroxy)methyl)-[1,2,4]triazolo[1,5-c]pyrimidin-7-yl)-2-fluorobenzonitrile] | < 10 | < 10
N#Cc1cccc(-c2cc3nc(Cc4c(F)cccc4CN[C@@H]4CCOC4=O)nn3c(N)n2)c1F [Example 20, (R)-3-(5-Amino-2-(2-fluoro-6-(((2-oxotetrahydrofuran-3-yl)amino)methyl)benzyl)-[1,2,4]triazolo[1,5-c]pyrimidin-7-yl)-2-fluorobenzonitrile] | < 10 | < 10
N#Cc1cccc(-c2cc3nc(Cc4c(F)cccc4CN[C@@H]4CCNC4=O)nn3c(N)n2)c1F [Example 21, (R)-3-(5-Amino-2-(2-fluoro-6-(((2-oxopyrrolidin-3-yl)amino)methyl)benzyl)-[1,2,4]triazolo[1,5-c]pyrimidin-7-yl)-2-fluorobenzonitrile] | < 10 | < 10
N#Cc1cccc(-c2cc3nc(Cc4c(F)cccc4CN[C@H]4CCNC4=O)nn3c(N)n2)c1F [Example 22, (S)-3-(5-Amino-2-(2-fluoro-6-(((2-oxopyrrolidin-3-yl)amino)methyl)benzyl)-[1,2,4]triazolo[1,5-c]pyrimidin-7-yl)-2-fluorobenzonitrile] | < 10 | < 10

Second part, the compound after the results:

Ki (Adenosine A2A receptor) [nM] | EC50 [1] [nM] | SMILES
< 10 | 10 to 100 | CN1CCC(NCc2cccc(F)c2C(O)c2nc3cc(-c4cccc(C#N)c4F)nc(N)n3n2)C1=O (single isomer, unassigned) [Example 16, 3-(5-Amino-2-((2-fluoro-6-(((1-methyl-2-oxopyrrolidin-3-yl)amino)methyl)phenyl)(hydroxy)methyl)-[1,2,4]triazolo[1,5-c]pyrimidin-7-yl)-2-fluorobenzonitrile]
< 10 | 100 to 1000 | Cn1cc(-c2cccc(Cc3nc4cc(-c5cccc(C#N)c5)nc(N)n4n3)c2)cn1 [Example 5, 3-(5-Amino-2-(3-(1-methyl-1H-pyrazol-4-yl)benzyl)-[1,2,4]triazolo[1,5-c]pyrimidin-7-yl)benzonitrile]
< 10 | 100 to 1000 | N#Cc1cccc(-c2cc3nc(CN4CCCC4=O)nn3c(N)n2)c1 [Example 6, 3-(5-Amino-2-((2-oxopyrrolidin-1-yl)methyl)-[1,2,4]triazolo[1,5-c]pyrimidin-7-yl)benzonitrile]
< 10 | 10 to 100 | Cc1c(C#N)cccc1-c1cc2nc(C(O)c3c(F)cccc3F)nn2c(N)n1 (stereo not shown) [Example 13, 3-(5-Amino-2-((2,6-difluorophenyl)(hydroxy)methyl)-[1,2,4]triazolo[1,5-c]pyrimidin-7-yl)-2-methylbenzonitrile]
< 10 | < 10 | N#Cc1cccc(-c2cc3nc(C(O)c4c(F)cccc4F)nn3c(N)n2)c1F (stereo not shown) [Example 14, 3-(5-Amino-2-((2,6-difluorophenyl)(hydroxy)methyl)-[1,2,4]triazolo[1,5-c]pyrimidin-7-yl)-2-fluorobenzonitrile]
< 10 | < 10 | N#Cc1cccc(-c2nc(N)n3nc(C(O)c4c(F)cccc4F)nc3c2C#N)c1F (stereo not shown) [Example 15, 5-Amino-7-(3-cyano-2-fluorophenyl)-2-((2,6-difluorophenyl)(hydroxy)methyl)-[1,2,4]triazolo[1,5-c]pyrimidine-8-carbonitrile]
< 10 | 10 to 100 | CN1CCC2(CN(Cc3cccc(F)c3C(O)c3nc4cc(-c5cccc(C#N)c5F)nc(N)n4n3)C2)C1=O (stereo not shown) [Example 17, 3-(5-Amino-2-((2-fluoro-6-((6-methyl-5-oxo-2,6-diazaspiro[3.4]octan-2-yl)methyl)phenyl)(hydroxy)methyl)-[1,2,4]triazolo[1,5-c]pyrimidin-7-yl)-2-fluorobenzonitrile]
< 10 | 10 to 100 | N#Cc1cccc(-c2cc3nc(Cc4c(F)cccc4CNC4CCN(CC(=O)O)C4=O)nn3c(N)n2)c1F (stereo not shown) [Example 19, 2-(3-((2-((5-Amino-7-(3-cyano-2-fluorophenyl)-[1,2,4]triazolo[1,5-c]pyrimidin-2-yl)methyl)-3-fluorobenzyl)amino)-2-oxopyrrolidin-1-yl)acetic acid]
< 10 | 10 to 100 | N#Cc1cccc(-c2cc3nc(Cc4c(F)cccc4CN4CCC(c5nn[nH]n5)C4)nn3c(N)n2)c1F (stereo not shown) [Example 23, 3-(2-(2-((3-(2H-Tetrazol-5-yl)pyrrolidin-1-yl)methyl)-6-fluorobenzyl)-5-amino-[1,2,4]triazolo[1,5-c]pyrimidin-7-yl)-2-fluorobenzonitrile]
